In patent publication US20250332167A1, “PHARMACEUTICAL USE OF CDK 4/6 INHIBITOR” (priority 2021, published 2025):
Several values for one entry are separate records, joined by “and”; a condition that tells them apart may be missing. Identical values can stand only once.

Columns and labels:
NCI-H1975 xenograft = assay: Human non-small cell lung cancer NCI-H1975 xenograft mouse model; assay type: in vivo, Balb/c nude mice; conditions: 25 mg/kg oral gavage once daily
Description: (§1) The formula for calculating tumor volume was: Tumor Volume (mm^3)=½×(a×b^2) (where “a” represents the long diameter and “b” represents the short diameter).
(§2) The relative tumor growth rate (T/C) is the percentage value of the relative tumor volume or weight between the treatment group and the control group at a certain time point. The calculation formula is as follows: • T/C(%)=TRTV/CRTV×100% (TRTV: Average RTV of the treatment group; CRTV: Average RTV of the Vehicle group; RTV=Vt/V0, where V0 is the tumor volume of the animal at the time of grouping and Vt is the tumor volume of the animal after treatment).
(§3) (T and C are the relative tumor volume (RTV) or weight (TW) of the treatment group and control group at a specific time point, respectively).
NCI-H1975 cells were cultured in RPMI1640 medium containing 10% fetal bovine serum. Log-phase NCI-H1975 cells were collected, suspended in PBS to an appropriate concentration, and used for subcutaneous tumor implantation in Balb/c nude mice. Each female mouse was implanted with 0.1 ml of NCI-H1975 cells subcutaneously. When the average tumor volume reached 171 mm^3, the mice were randomly divided into groups based on tumor size.
The positive control drugs were Palbociclib and Abemaciclib.
Each group consisted of 8 mice, and oral gavage administration was performed once daily for a total of 21 days. Tumor volume and body weight changes were observed regularly, and efficacy evaluation was conducted based on relative tumor proliferation rate (T/C) and relative tumor growth inhibition rate (TGI). The calculation methods for tumor volume, T/C, and TGI are described in Example 3.

[1] = tested on: Human glioblastoma model (BN2289); assay: Human glioblastoma xenograft mouse model (BN2289); assay type: in vivo, BALB/C nude mice; conditions: 25 mg/kg oral gavage once daily, day 21
Description: Human glioblastoma model (BN2289, Crown Bioscience Co., Ltd.) tumor fragments were cut into small pieces with a diameter of 2-3 mm and subcutaneously inoculated into the right side of BALB/C nude mice. Tumor growth was monitored regularly, and when the tumors grew to an average volume of approximately 100-200 mm^3, mice were randomly divided into groups based on the tumor size.
Each group consisted of 8 mice and received oral gavage administration once daily for a total of 28 days. Regular observations were made on tumor volume and changes in body weight. Efficacy evaluation was conducted based on the relative tumor growth rate (T/C) and the relative tumor inhibition rate (TGI).
as §1, §2, §3

NCI-H358 = assay: Proliferation inhibition, non-small cell lung cancer cell line NCI-H358; assay type: cell-based; conditions: Homo sapiens, NCI-H358, 72 h
Experimental: (§4) Sixteen non-small cell lung cancer cell lines, including NCI-H1792, NCI-H1703, NCI-H441, SNU-761, NCI-H1975, NCI-H358, NCI-H1838, NCI-H1915, A549, SK-MES-1, NCI-H292, PC-9, NCI-H460, NCI-H23, NCI-H1581, and HLF, were used for the proliferation inhibition assay of the present invention compound. […] The cell detection equipment used was In Cell Analyzer 2200 (GE Healthcare).
(§5) With 60 μM as the initial concentration, ten points were obtained by serial five-fold dilution.
(§6) Each kind of cell in logarithmic growth phase was inoculated with 4000 cells/100 μl/well into a black transparent bottom 96-well plate and cultured overnight at 37° C. The next day, the plate was taken out, and 20 μL of the prepared sample dilutions was added to each well. The plate was then subjected to treatment at 37° C. for 72 hours. After the treatment period of 72 hours, the plate was taken out and 50 μL of neutral formaldehyde fixative (formaldehyde: PBS=1:9, 50 μl/well) was added to each well. The plate was then fixed at room temperature for 10-30 minutes. Subsequently, the wells were washed twice with 1× PBS (100 μl/well) and treated with 0.2% Triton™-X100 for 5-10 minutes to permeabilize the cells. […] The inhibitory rates of each compound at different concentration points were calculated by using the following formula, and IC50 values were obtained through curve fitting using GraphPad Prism 6.0 software.

NCI-H1792 = assay: Proliferation inhibition, non-small cell lung cancer cell line NCI-H1792; assay type: cell-based; conditions: Homo sapiens, NCI-H1792, 72 h
Experimental: as §4, §5, §6

SNU-761 = assay: Proliferation inhibition, non-small cell lung cancer cell line SNU-761; assay type: cell-based; conditions: Homo sapiens; SNU-761, 72 h
Experimental: as §4, §5, §6

U118MG cells = assay: Proliferation inhibition of human glioblastoma cells U118MG (DAPI cell count, 72 h); assay type: cell-based; conditions: U-118-MG, 72 h treatment
Experimental: Human glioblastoma cell U118MG was purchased from NANJING COBIOER BIOSCIENCES CO., LTD. […] The cell detection equipment used was the In Cell Analyzer 2200 (GE Healthcare).
as §5
Medium for U118 MG is the MEM (low glucose) medium supplemented with 10% FBS, 1% penicillin/streptomycin, 1% sodium pyruvate, and 1% MEM NEAA. U118 MG cells were seeded at a density of 4000 cells/100 μL/well in a 96-well black clear-bottom plate and incubated at 37° C. overnight. The plate was then taken, and 20 μL of the prepared diluted samples was added to the wells. The cells were treated at 37° C. for 72 hours. After 72 hours, the plate was taken, and a neutral formaldehyde fixation solution (formaldehyde:PBS=1:9) was added at 50 μL/well. The cells were fixed at room temperature for 10-30 minutes. The wells were washed twice with 1× PBS (100 μL/well), and then permeabilized with 0.2% Triton™-X100 for 5-10 minutes (100 μL/well). […] The plate was scanned by using an In Cell Analyzer, and the number of cells in each well was analyzed. The inhibition rate of each compound at various concentration points was calculated by using the formula provided. The IC50 values were determined by curve fitting using GraphPad Prism 6.0 software.

NCI-H441 = assay: Proliferation inhibition, non-small cell lung cancer cell line NCI-H441; assay type: cell-based; conditions: Homo sapiens, NCI-H441, 72 h
Experimental: as §4, §5, §6

NCI-H1703 = assay: Proliferation inhibition, non-small cell lung cancer cell line NCI-H1703; assay type: cell-based; conditions: Homo sapiens, NCI-H1703, 72 h
Experimental: as §4, §5, §6

NCI-H1838 = assay: Proliferation inhibition, non-small cell lung cancer cell line NCI-H1838; assay type: cell-based; conditions: Homo sapiens, NCI-H1838, 72 h
Experimental: as §4, §5, §6

Structure (SMILES) | T/C (NCI-H1975 xenograft; 16 days after administration) [%] | TGI (NCI-H1975 xenograft; 16 days after administration) [%] | Tumor relative volume (x ± S) (NCI-H1975 xenograft; 16 days after administration) | Tumor volume (x ± S) (NCI-H1975 xenograft; 16 days after administration) | Body weight change (NCI-H1975 xenograft; Day 20 of treatment) | Day 21 Tumor Volume [1] [mm^3] | Relative Average Tumor Volume [1] | T/C (relative tumor growth rate) [1] [%] | TGI (relative tumor inhibition rate) [1] [%] | IC50 (NCI-H358) [µM] | IC50 (NCI-H1792) [µM] | IC50 (SNU-761) [µM] | IC50 (U118MG cells) [µM] | IC50 (NCI-H441) [µM] | IC50 (NCI-H1703) [µM] | IC50 (NCI-H1838) [µM]
CC(=O)c1c(C)c2cnc(Nc3ccc(N4CCNCC4)cn3)nc2n(C2CCCC2)c1=O [Palbociclib, reference compound] | 66 | 34 | 7.7 ± 1.0 | 1469 mm^3 and 1469 ± 146 mm^3 | slight decrease in body weight | 1417.98 ± 121.86 | 9.58 | 66.01 | 33.99 |  |  |  |  |  |  | 
CCN1CCN(Cc2ccc(Nc3ncc(F)c(-c4cc(F)c5nc(C)n(C(C)C)c5c4)n3)nc2)CC1 [Abemaciclib, reference compound] | 93 | 7 |  | 2071 mm^3 and 2071 ± 148 mm^3 |  | 1627.31 ± 100.66 |  |  |  | 0.044 | 0.023 | 0.054 | 0.086 ± 0.0229 | 0.04 | 0.093 | 0.0902
